One compound from patent US20110045100A1, “Antimalarial Quinolines and Methods of Use Thereof” (GEORGETOWN UNIVERSITY, priority 2008, published 2011) can be followed below.

In general, IC50 refers to the concentration at which inhibition is half-maximal. The pKa is the pH at which an ionisable group is half protonated.

Data set [1] concerns CQS (HB3, GCO3) and CQR (Dd2, FCB) strains of P. falciparum. Kind of data set: SYBR Green I antiplasmodial assay, several CQS and CQR strains. Type of data set: cell-based, Plasmodium falciparum. Conditions: Plasmodium falciparum; read-out: IC50 vs. CQR parasites. The source says: Bennett T. N.; Paguio, M.; Gligorijevic, B.; Seudieu, C.; Kosar, A. D.; Davidson, E.; Roepe, P. D. Novel, rapid, and inexpensive cell-based quantification of antimalarial drug efficacy. Antimicrob. Agents Chemother. 2004, 48, 1807-1810; Smilkstein, M.; Sriwilaijaroen, N.; Kelly, J. X.; Wilairat, P.; Riscoe, M. Simple and inexpensive fluorescence-based technique for high-throughput antimalarial drug screening. Antimicrob. Agents Chemother. 2004, 48, 1803-1806; and Johnson, J. D.; Dennull, R. A.; Gerena, L.; Lopez-Sanchez, M.; Roncal, N. E.; Waters, N.C. Assessment and continued validation of the malaria SYBR green I-based fluorescence assay for use in malaria drug screening. Antimicrob. Agents Chemother. 2007, 51, 1926-1933. […] Drake, N. L.; Creech, H. J.; Garman, J. A.; Haywood, S. T.; Peck, R. M.; van Hook, J. O.; Walton, E. Synthetic antimalrials. The preparation of certain 4-aminoquinolines. J. Am. Chem. Soc. […] Trans. R. Soc. Trop. Med. Hyg. […] J. Parasitol. 1983, 69, 97-105. The selectivity index provides a quantitative measure of the antimalarial activity against CQR strains relative to that against sensitive strains and thus indicates promising drug discovery leads. […] This can be combined with the introduction of a third basic amino function which should further favor accumulation of the drug within the acidic food vacuole of the parasite.
Bennett T. N.; Paguio, M.; Gligorijevic, B.; Seudieu, C.; Kosar, A. D.; Davidson, E.; Roepe, P. D. Novel, rapid, and inexpensive cell-based quantification of antimalarial drug efficacy. Antimicrob. Agents Chemother. 2004, 48, 1807-1810; Smilkstein, M.; Sriwilaijaroen, N.; Kelly, J. X.; Wilairat, P.; Riscoe, M. Simple and inexpensive fluorescence-based technique for high-throughput antimalarial drug screening. Antimicrob. Agents Chemother. 2004, 48, 1803-1806; and Johnson, J. D.; Dennull, R. A.; Gerena, L.; Lopez-Sanchez, M.; Roncal, N. E.; Waters, N.C. Assessment and continued validation of the malaria SYBR green I-based fluorescence assay for use in malaria drug screening. Antimicrob. Agents Chemother. 2007, 51, 1926-1933.
Drug activities were assessed and IC50 were quantified essentially as described previously. Delarue, S.; Girault, S.; Maes, L.; Debreu-Fontaine, M. A.; Labaeid, M.; Grellier, P.; Sergheraert, C. Synthesis and in vitro and in vivo antimalarial activity of new 4-anilinoquinolines. J. Med. Chem. 2001, 44, 2827-2833; and O'Neill, P. M.; Willock, D. J.; Hawley, S. R.; Bray, P. G.; Storr, R. C.; Ward, S. A.; Park, B. K. Synthesis, antimalarial activity, and molecular modeling of tebuquine analogues. J. Med. Chem. 1997, 40, 437-448.

The test system of the next data set is hemozoin (Hz) formation. Kind of data set: Quantification of in vitro Hz formation inhibition. Type of data set: biochemical. The procedure: A stock solution of 5 mM hemin (Fluka) in 0.1M NaOH was prepared and stored as small aliquots at -20° C. Fresh aliquots were thawed daily to room temperature before use. Lecithin stock solutions were prepared by dissolving in distilled water to 10 mg/ml and similarly stored. 0.5 M propionate was used to buffer experiments in the pH range 5.2-5.6. The assay mixture (1 mL volumes) contained: 200 μL lecithin solution ([…] final) 20 μL hematin (100 μM final concentration) 20 μ[…] propionate buffer (X) μL drug (dependant on the concentration required 0-1000 μM). The addition sequence involved first adding the lecithin followed by heme, HCl, propionate buffer and finally the drug. Each sample was prepared in triplicate. Following addition of the reagents the samples were incubated at 37° C. with constant shaking for 18 h. After 18 h the assay was stopped by spinning the samples at 13,200 rpm for 10 minutes followed by carefully aspirating off the supernatant. The pellet was then resuspended in 50 mM bicarbonate buffer pH 9.0 (1 mL) and gently shaken at room temperature for 30 minutes to dissolve uncrystallized heme. The samples were then centrifuged as above and the supernatant removed. […] The samples were then dissolved in 0.1M NaOH to solubilize β-hematin to free heme and β-hematin formed was then quantified via heme absorbance at 402 nm. Calibration curves were prepared by titrating increasing amounts of heme in the same solvent vs. absorbance at 402 nm.

A short description of data set [2]: pKa determination by acid/base titration. It is filed as physicochemical. Conditions: distilled water; measured; read-out: quinolyl N pKa. As for the experimental part: SPARC pKa calculator is an online tool developed at the University of Georgia by S. W. Karickhoff, L. A. Carreira and S. H. Hilal. Experimental pKa were determined using an Accumet AB15 pH meter and a calomel electrode. 10 mM solutions of the drugs (as dibasic salts) were made in distilled H2O and titrated at room temperature (23.0±2.0° C.) using 0.1 M NaOH. Titration plots were generated and pKa's extracted via inflection points from the second derivative plots; (Δ^2pH/ΔV^2) vs. V, where V represents the volume of the titrant added and ΔV is the volume increment.

With `CCN(CC)CCCCOc1ccnc2cc(Cl)ccc12` [compound 93, O-(7-Chloro-4-quinolyl)-4-(N,N-diethylamino)butanol], in data set [1], the IC50 is about 1000 nM. For the same compound, the “fold higher IC50 for Hz inhibition relative to 98” value in the data set with hemozoin (Hz) formation was “roughly 5 fold”. For the same compound, the “ability to inhibit Hz formation vs. that measured for CQ and 8” value with hemozoin (Hz) formation (FIG. 26) was “significantly lower”. The pKa in data set [2] turned out to be 4.5.
